The values that follow come from patent US11566017B2, “Dihydroquinazolinone compound or pharmacologically acceptable salt, and cell growth inhibitor” (RIKEN, priority 2017, dated 2023).

The target of one assay is T1, tankyrase 2 (TNKS2) (Homo sapiens, UniProt Q9H2K2).
T1 construct: tankyrase 2 (613-1,116aa, ANK5+SAM+PARP); made in house; host or cells: cell-free protein expression system
Nature of the assay: Tankyrase inhibitory activity test (ELISA, auto-poly(ADP-ribosyl)ation), tankyrase 2. The class given is biochemical. Particulars: Flag tagged tankyrase 2 (613-1,116aa, ANK5+SAM+PARP); read-out: TNKS2 (inhibitory activity against tankyrase 2, IC50). On the procedure: (§1) The enzymatic activity of tankyrase 1 and the enzymatic activity of tankyrase 2 were measured by the ELISA method based on assessment of auto-poly(ADP-ribosyl)ation to evaluate the tankyrase inhibitory activity of the compound prepared in each of Examples (test compound) (inhibitory activity against tankyrase 1 (TNKS1) and inhibitory activity against tankyrase 2 (TNKS2)). First, Flag tagged tankyrase 1 (1,024-1,327aa, SAM+PARP) and tankyrase 2 (613-1,116aa, ANK5+SAM+PARP) were synthesized with a cell-free protein expression system, and diluted with a Tris buffer solution (50 mM Tris-HCl (pH 8.0), 150 mM NaCl, 10% glycerol). 50 μL of the diluted tankyrase 1 or tankyrase 2 was added to a plate with an anti-FLAG M2 monoclonal antibody immobilized thereon (Anti-FLAG High-Sensitivity M2-Coated Plate) (Sigma-Aldrich), and the plate was left standing overnight at 4° C. Thereafter, the plate was washed four times with a PBS (PBST) buffer containing 0.1% Triton X-100. For Example 84, the Anti-FLAG High-Sensitivity M2-Coated Plate was replaced by an immunoplate (Thermo Fisher Scientific), tankyrase 1 or tankyrase 2 was immobilized on the immunoplate, and the immunoplate was then blocked with Blocking One (nacalai tesque), then washed with a PBS (PBST) buffer, and used as the following plate.
(§2) Subsequently, the test compound diluted with an assay buffer (50 mM Tris-HCl (pH 8.0), 4 mM MgCl2, 0.2 mM DTT) (DMSO was used as a control) was added to each well of the plate, and the plate was left standing at room temperature for 10 minutes. Thereafter, a biotin-labeled NAD solution (225 μM NAD, 25 μM 6-Biotin-17-NAD (Travigen, Inc.)) was added and mixed as a donor substrate, and the mixture was reacted at 30° C. for 45 minutes. To blank wells was added distilled water instead of the biotin-labeled NAD solution. After the reaction, the plate was washed with a PBST buffer four times. Thereafter, HRP (horseradish peroxidase)-labeled streptavidin (Travigen, Inc.) was diluted with a PBS buffer by 1,000 times, and added to each well, and the mixture was reacted at room temperature for 20 minutes. The plate was washed with a PBST buffer four times, a chemiluminescent substrate solution TACS-Sapphire (Travigen, Inc.) was then added to each well, the mixture was reacted at room temperature for 20 minutes, and the chemiluminescence intensity was measured using a chemiluminescence measuring apparatus. For Example 84, the streptavidin was diluted by 5,000 times, the chemiluminescent substrate solution TACS-Sapphire was replaced by an ELISA POD substrate TMB solution easy (nacalai tesque), the mixture was reacted at room temperature for 30 minutes, and the chemiluminescence intensity was measured using a chemiluminescence measuring apparatus.
(§3) The residual enzymatic activity in the presence of the test compound was determined from the following expression. On the basis of the residual enzymatic activity at each of multiple concentrations of the test compound, the enzyme inhibitory activity was calculated in terms of a 50%-inhibition concentration (IC50 value) using data analysis software Origin (LightStone Corp.). Residual activity (%)={(chemiluminescence intensity with test compound added)−(chemiluminescence intensity of blank)}/{(chemiluminescence intensity of control)−(chemiluminescence intensity of blank)}
(ELISA stands for enzyme-linked immunosorbent assay.)

For a further assay, the target named is T2, tankyrase 1 (TNKS1) (Homo sapiens, UniProt O95271).
T2 construct: tankyrase 1 (1,024-1,327aa, SAM+PARP); made in house; host or cells: cell-free protein expression system
Nature of the assay: Tankyrase inhibitory activity test (ELISA, auto-poly(ADP-ribosyl)ation), tankyrase 1. The class given is biochemical. The conditions noted are these: Flag tagged tankyrase 1 (1,024-1,327aa, SAM+PARP); read-out: TNKS1 (inhibitory activity against tankyrase 1, IC50). On the procedure: as §1, §2, §3

In assay [1] the test system is human colorectal cancer cell line COLO-320DM. Put plainly: Cell proliferation inhibitory activity test (Celltiter-Glo). The format is cell-based. Particulars: COLO-320DM cells, 96 hours. The protocol: The cell proliferation inhibitory activity of the compound, which had been prepared in each of Examples, against the human colorectal cancer cell line COLO-320DM was evaluated by Celltiter-Glo Luminescent Cell Viability Assay (Promega Corporation; G7573). COLO-320DM cells were cultured in RPMI-1640 medium containing 2 mM glutamine (Wako Pure Chemical Industries, Ltd; 189-02025) supplemented with 10% fetal bovine serum. The cultured cells were washed with PBS, and then dissociated with trypsin/EDTA, and a cell solution with 3×10^4 cells/mL was prepared.
Subsequently, the cell solution was seeded in a 96-well microplate (Thermo/Nunc Company; 136101) in an amount of 70 μL per well, and cultured overnight under the condition of 37° C. and 5% CO2. Next day, a test compound solution obtained by diluting the test compound (DMSO solution) with a cell culture medium (final concentration of DMSO was 1%) was added in an amount of 10 μL per well, and the mixture was reacted under the condition of 37° C. and 5% CO2 for 96 hours (a 1% DMSO solution was used as a control). Thereafter, a Celltiter-GloLuminescent Cell Viability Assay reagent (Promega Corporation; G7573) was added in an amount of 80 μL per well, the mixture was stirred with a shaker for 2 minutes while light was blocked with an aluminum foil, and the mixture was incubated at room temperature for 10 minutes.
Thereafter, a luminescence signal was measured with a luminometer (Biotech Company; Synergy). The ratio of cell proliferation in each compound addition group to cell proliferation in a control group containing no test compound solution, where cell proliferation in the control group is 100%, was calculated and the value of a compound concentration necessary for suppressing the amount of residual cells to 50% of that in the control (GI50) was calculated as the cytostatic activity. […] An unevaluated test compound was designated as “NT”.

pIC50: −log10 of the molar value.

T2 sequence (O95271 1024-1327): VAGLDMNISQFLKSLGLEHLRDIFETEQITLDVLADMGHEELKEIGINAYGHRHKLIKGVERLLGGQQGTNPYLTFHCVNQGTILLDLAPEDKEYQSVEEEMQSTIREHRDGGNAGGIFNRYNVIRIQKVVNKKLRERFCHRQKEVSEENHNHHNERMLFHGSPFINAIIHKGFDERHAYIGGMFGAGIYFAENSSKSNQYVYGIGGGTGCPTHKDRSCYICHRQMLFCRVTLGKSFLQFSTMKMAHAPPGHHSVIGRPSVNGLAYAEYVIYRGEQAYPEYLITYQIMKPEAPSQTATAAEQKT

As a reminder, the pIC50 is −log10 of the IC50, conventionally taken in molar units. As usually defined, the GI50 is the concentration giving 50% growth inhibition. With `CN1c2ccccc2C(=O)NC1c1c[nH]nc1-c1ccc(F)cc1` (stereo not drawn) [Example 21, 2-[3-(4-Fluorophenyl)-1H-pyrazol-4-yl]-1-methyl-2,3-dihydroquinazolin-4-one], the pIC50 on tankyrase 2 (TNKS2) was 7.70 to 8.30; at tankyrase 1 (TNKS1), 7.30 to 7.70. Moreover, in assay [1], the GI50 was at least 10 µM.
For `CN1c2ccccc2C(=O)NC1c1c[nH]nc1-c1cccc(-c2ccccc2)c1` (stereo not drawn) [Example 22, 1-Methyl-2-[3-(3-phenylphenyl)-1H-pyrazol-4-yl]-2,3-dihydroquinazolin-4-one], in that order: above 8.30, above 8.30 and at least 10 µM.
For `CN1CCN(c2ccc(-c3cccc(-c4n[nH]cc4C4NC(=O)c5ccccc5N4C)c3)cc2)CC1` (stereo not drawn) [Example 23, 1-Methyl-2-[5-[3-[4-(4-methylpiperazin-1-yl)phenyl]phenyl]-1H-pyrazol-4-yl]-2,3-dihydroquinazolin-4-one], the pIC50 on tankyrase 2 (TNKS2) and at tankyrase 1 (TNKS1) was 7.30 to 7.70 each time. Besides, the GI50 in assay [1] lay in the range of 1 to 10 µM.
With `CN1c2ccccc2C(=O)NC1c1c[nH]nc1-c1ccc(-c2cccc(O)c2)cc1` (stereo not drawn) [Example 24, 2-[3-[4-(3-Hydroxyphenyl)phenyl]-1H-pyrazol-4-yl]-1-methyl-2,3-dihydroquinazolin-4-one], the pIC50 at tankyrase 2 (TNKS2) and on tankyrase 1 (TNKS1) was 7.70 to 8.30 throughout. In addition, the GI50 in assay [1] is at least 10 µM.
For the compound `CN1CCN(Cc2ccc(-c3ccc(-c4n[nH]cc4C4NC(=O)c5ccccc5N4C)cc3)cc2)CC1` (stereo not drawn) [Example 25, 1-Methyl-2-[5-[4-[4-[(4-methylpiperazin-1-yl)methyl]phenyl]phenyl]-1H-pyrazol-4-yl]-2,3-dihydroquinazolin-4-one], the negative logarithm of the IC50 (pIC50) on tankyrase 2 (TNKS2) is 7.30 to 7.70; on tankyrase 1 (TNKS1), 7.70 to 8.30. Moreover, in assay [1], the GI50 is at least 10 µM.
The corresponding values for `CN1CCN(Cc2cccc(-c3ccc(-c4n[nH]cc4C4NC(=O)c5ccccc5N4C)cc3)c2)CC1` (stereo not drawn) [Example 26, 1-Methyl-2-[5-[4-[3-[(4-methylpiperazin-1-yl)methyl]phenyl]phenyl]-1H-pyrazol-4-yl]-2,3-dihydroquinazolin-4-one] are 7.70 to 8.30, 7.30 to 7.70 and at least 10 µM.
The corresponding values for `CN1c2ccccc2C(=O)NC1c1c[nH]nc1-c1ccc(OCC(F)(F)F)cc1` (stereo not drawn) [Example 27, 1-Methyl-2-[3-(4-(2,2,2-trifluoromethoxy)phenyl]-1H-pyrazol-4-yl]-2,3-dihydroquinazolin-4-one] are 7.70 to 8.30, above 8.30 and at least 10 µM.
For `CN1c2ccccc2C(=O)NC1c1c[nH]nc1-c1cccc(F)c1` (stereo not drawn) [Example 28, 2-[3-(3-Fluorophenyl)-1H-pyrazol-4-yl]-1-methyl-2,3-dihydroquinazolin-4-one], in that order: 7.70 to 8.30, above 8.30 and 1 to 10 µM.
As to `CN1c2ccccc2C(=O)NC1c1c[nH]nc1-c1ccc(-c2ccc(N3CCOCC3)cc2)cc1` (stereo not drawn) [Example 29], the pIC50 at tankyrase 2 (TNKS2) and at tankyrase 1 (TNKS1) was 7.70 to 8.30 throughout. The GI50 in assay [1] fell in the range of 1 to 10 µM.
With `CN1c2ccccc2C(=O)NC1c1c[nH]nc1-c1cccc(-c2ccc(N3CCOCC3)cc2)c1` (stereo not drawn) [Example 30], the pIC50 on tankyrase 2 (TNKS2) and at tankyrase 1 (TNKS1) was 7.70 to 8.30 in each case. Also, the GI50 in assay [1] fell in the range of 1 to 10 µM.
`CN1c2ccccc2C(=O)NC1c1c[nH]nc1-c1ccc(C#N)cc1` (stereo not drawn) [Example 31, 4-[4-(1-Methyl-4-oxo-2,3-dihydroquinazolin-2-yl)-1H-pyrazol-3-yl]benzonitrile]: the pIC50 on tankyrase 2 (TNKS2) and on tankyrase 1 (TNKS1) was 7.70 to 8.30 throughout. In addition, the GI50 in assay [1] is at least 10 µM.
Turning to `CN1CCN(Cc2ccc(-c3cccc(-c4n[nH]cc4C4NC(=O)c5ccccc5N4C)c3)cc2)CC1` (stereo not drawn) [Example 32], the pIC50 on tankyrase 2 (TNKS2) and at tankyrase 1 (TNKS1) was 7.30 to 7.70 each time. In addition, the GI50 in assay [1] is at least 10 µM.
Regarding `CN1CCN(Cc2cccc(-c3cccc(-c4n[nH]cc4C4NC(=O)c5ccccc5N4C)c3)c2)CC1` (stereo not drawn) [Example 33], the pIC50 on tankyrase 2 (TNKS2) and at tankyrase 1 (TNKS1) was 7.30 to 7.70 throughout. For the same compound, the GI50 in assay [1] is at least 10 µM.
With `CN(C)c1ccc(-c2ccc(-c3n[nH]cc3C3NC(=O)c4ccccc4N3C)cc2)cc1` (stereo not drawn) [Example 34, 2-[5-[4-[4-(Dimethylamino)phenyl]phenyl]-1H-pyrazol-4-yl]-1-methyl-2,3-dihydroquinazolin-4-one], the pIC50 at tankyrase 2 (TNKS2) and on tankyrase 1 (TNKS1) was 7.30 to 7.70 in each case. Besides, the GI50 in assay [1] is 1 to 10 µM.
`CN(C)c1ccc(-c2cccc(-c3n[nH]cc3C3NC(=O)c4ccccc4N3C)c2)cc1` (stereo not drawn) [Example 35, 2-[5-[3-[4-(Dimethylamino)phenyl]phenyl]-1H-pyrazol-4-yl]-1-methyl-2,3-dihydroquinazolin-4-one]: the pIC50 at tankyrase 2 (TNKS2) and on tankyrase 1 (TNKS1) was 7.30 to 7.70 in each case. In assay [1], the GI50 is at least 10 µM.
As for `CCOC(=O)Cc1ccc(-c2ccc(-c3[nH]ncc3C3NC(=O)c4ccccc4N3C)cc2)cc1` (stereo not drawn) [Example 36, Ethyl 2-[4-[4-[4-(1-methyl-4-oxo-2,3-dihydroquinazolin-2-yl)-1H-pyrazol-5-yl]phenyl]phenyl]acetate], the pIC50 at tankyrase 2 (TNKS2) and at tankyrase 1 (TNKS1) was 7.30 to 7.70 throughout. Further, the GI50 in assay [1] is at least 10 µM.
Turning to `CCOC(=O)Cc1ccc(-c2cccc(-c3n[nH]cc3C3NC(=O)c4ccccc4N3C)c2)cc1` (stereo not drawn) [Example 37, Ethyl 2-[4-[3-[4-(1-methyl-4-oxo-2,3-dihydroquinazolin-2-yl)-1H-pyrazol-5-yl]phenyl]phenyl]acetate], the pIC50 on tankyrase 2 (TNKS2) and at tankyrase 1 (TNKS1) was 7.30 to 7.70 throughout. Moreover, the GI50 in assay [1] is at least 10 µM.
Consider `CN1CCN(c2cccc(-c3ccc(-c4[nH]ncc4C4NC(=O)c5ccccc5N4C)cc3)c2)CC1` (stereo not drawn) [Example 38, 1-Methyl-2-[5-[4-[3-(4-methylpiperazin-1-yl)phenyl]phenyl]-1H-pyrazol-4-yl]-2,3-dihydroquinazolin-4-one], for which the pIC50 at tankyrase 2 (TNKS2) and at tankyrase 1 (TNKS1) was 7.30 to 7.70 in each case. For the same compound, the GI50 in assay [1] is 1 to 10 µM.
Consider `CN1c2ccccc2C(=O)NC1c1c[nH]nc1-c1ccc(-c2ccnc3[nH]ccc23)cc1` (stereo not drawn) [Example 39, 1-Methyl-2-[3-[4-(1H-pyrrolo[2,3-b]pyridin-4-yl)phenyl]-1H-pyrazol-4-yl]-2,3-dihydroquinazolin-4-one], for which the pIC50 on tankyrase 2 (TNKS2) and on tankyrase 1 (TNKS1) was 7.30 to 7.70 throughout. Further, the GI50 in assay [1] is at least 10 µM.
